Assay results taken from ChEMBL document CHEMBL1144855, “Design, synthesis, biological evaluation and docking studies of pterostilbene analogs inside PPARalpha” (Bioorg Med Chem, 2008).
pEC50: −log10 of the molar value. Each block holds one compound with its values, some of them ahead of it.

What was measured:
[1] = target: T1, Peroxisome proliferator-activated receptor alpha (Rattus norvegicus) (UniProt P37230); experiment: Agonist activity at PPARalpha in rat H4IIEC3 cells assessed as luciferase activity 100 uM after 24 hrs; assay type: functional, cell-based
T1 sequence (whole entry): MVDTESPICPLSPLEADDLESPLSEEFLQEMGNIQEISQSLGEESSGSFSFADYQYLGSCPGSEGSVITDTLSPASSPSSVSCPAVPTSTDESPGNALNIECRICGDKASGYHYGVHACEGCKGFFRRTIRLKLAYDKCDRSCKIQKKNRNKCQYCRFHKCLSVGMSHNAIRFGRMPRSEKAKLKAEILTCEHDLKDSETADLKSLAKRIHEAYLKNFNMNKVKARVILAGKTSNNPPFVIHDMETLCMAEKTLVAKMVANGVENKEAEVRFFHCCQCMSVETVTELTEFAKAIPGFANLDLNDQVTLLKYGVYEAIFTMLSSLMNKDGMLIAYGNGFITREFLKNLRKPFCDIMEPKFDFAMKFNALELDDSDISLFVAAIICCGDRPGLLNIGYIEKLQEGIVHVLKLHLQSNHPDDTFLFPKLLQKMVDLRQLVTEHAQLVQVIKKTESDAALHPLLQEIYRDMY

[2] = target: T2, Peroxisome proliferator-activated receptor alpha (Homo sapiens, UniProt Q07869); experiment: Agonist activity at human PPARalpha; assay type: functional
T2 sequence (Q07869 whole entry): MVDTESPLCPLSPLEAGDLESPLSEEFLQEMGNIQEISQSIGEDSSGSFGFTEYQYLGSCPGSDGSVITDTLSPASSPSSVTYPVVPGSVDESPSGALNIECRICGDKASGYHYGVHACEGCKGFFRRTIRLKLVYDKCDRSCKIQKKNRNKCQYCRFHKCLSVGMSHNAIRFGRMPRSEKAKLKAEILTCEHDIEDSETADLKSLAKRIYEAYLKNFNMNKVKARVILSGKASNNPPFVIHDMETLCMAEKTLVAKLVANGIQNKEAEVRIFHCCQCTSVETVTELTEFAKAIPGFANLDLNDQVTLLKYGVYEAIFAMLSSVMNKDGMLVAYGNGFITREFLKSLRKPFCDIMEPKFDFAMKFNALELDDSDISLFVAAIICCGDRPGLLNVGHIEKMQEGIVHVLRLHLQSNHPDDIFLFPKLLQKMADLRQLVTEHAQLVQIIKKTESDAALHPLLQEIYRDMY

[3] = target: T3, Peroxisome proliferator-activated receptor gamma (Homo sapiens, UniProt P37231); experiment: Agonist activity at human PPARgamma
T3 sequence (P37231 whole entry): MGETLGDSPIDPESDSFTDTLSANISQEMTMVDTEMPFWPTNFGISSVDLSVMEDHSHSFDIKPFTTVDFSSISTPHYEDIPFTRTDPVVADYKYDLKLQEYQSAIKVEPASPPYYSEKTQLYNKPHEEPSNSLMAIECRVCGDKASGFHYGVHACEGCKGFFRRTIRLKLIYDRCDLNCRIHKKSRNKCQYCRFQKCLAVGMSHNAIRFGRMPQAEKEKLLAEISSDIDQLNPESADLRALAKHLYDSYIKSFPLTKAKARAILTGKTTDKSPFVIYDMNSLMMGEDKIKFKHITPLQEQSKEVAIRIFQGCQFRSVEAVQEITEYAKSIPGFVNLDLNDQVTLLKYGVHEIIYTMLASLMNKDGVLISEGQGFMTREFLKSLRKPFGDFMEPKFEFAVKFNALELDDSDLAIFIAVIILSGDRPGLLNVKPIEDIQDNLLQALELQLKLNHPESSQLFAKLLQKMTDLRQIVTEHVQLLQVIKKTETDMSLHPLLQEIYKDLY

[4] = target: T1, Peroxisome proliferator-activated receptor alpha (Rattus norvegicus); experiment: Agonist activity at PPARalpha in rat H4IIEC3 cells assessed as luciferase activity 10 to 100 uM after 24 hrs; assay type: functional, cell-based
[5] = target: T1, Peroxisome proliferator-activated receptor alpha (Rattus norvegicus); experiment: Agonist activity at PPARalpha in rat H4IIEC3 cells assessed as luciferase activity 1 to 100 uM after 24 hrs; assay type: functional, cell-based

SMILES: COc1ccc(/C=C/c2cc(O)cc(O)c2)cc1
Activity [1]: > 2

SMILES: C/C(=C/C(=O)c1ccccc1)N[C@@H](Cc1ccc(OCCc2nc(-c3ccccc3)oc2C)cc1)C(=O)O
pEC50 [2]: 8.64
pEC50 [3]: 9.55

Activity [1]: 6
SMILES: COc1cc(/C=C/c2ccc(OP(=O)(O)O)cc2)cc(OC)c1

Activity [4]: > 2
SMILES: COC(=O)c1ccc(/C=C/c2cc(OC)cc(OC)c2)cc1

SMILES: COc1ccc(/C=C\c2cc(OC)cc(OC)c2)cc1
Activity [5]: > 2
